{"source": "patent US5300304A", "about": "“Pulsatile once-a-day delivery systems for minocycline” (priority 1992, dated 1994)", "key": {"[1]": {"details": "taken without food; cited from earlier work"}, "[2]": {"test_system": "gram-negative and gram-positive bacteria", "details": "PDR 43rd Ed.; cited from earlier work"}}, "note": "Read-outs that look alike come from different tables or passages of the source."}
{"compound": "CN(C)c1ccc(O)c2c1C[C@H]1C[C@H]3[C@H](N(C)C)C(=O)C(C(N)=O)=C(O)[C@@]3(O)C(=O)C1=C2O", "note": "[minocycline, 7-dimethylamino-6-deoxy-6-demethyltetracycline]", "values": [{"measurement": "bioavailability of minocycline in the gastrointestinal tract", "setting": "duodenum, based upon 100 percent absorption in the stomach", "result": 106, "unit": "%"}, {"measurement": "absorption in the lower gastrointestinal tract", "setting": "human patients, intubation", "result": "reduced absorption"}, {"measurement": "bioavailability of minocycline in the gastrointestinal tract", "setting": "ileum, based upon 100 percent absorption in the stomach", "result": 58, "unit": "%"}, {"measurement": "bioavailability of minocycline in the gastrointestinal tract", "setting": "jejunum, based upon 100 percent absorption in the stomach", "result": 80, "unit": "%"}, {"measurement": "bioavailability of minocycline in the gastrointestinal tract", "setting": "stomach, reference (100 percent absorption in the stomach)", "result": 100, "unit": "%"}, {"measurement": "half life", "setting": "[1]", "result": "approximately 10 hours"}, {"measurement": "organisms susceptible to minocycline therapy", "setting": "[2]", "result": "wide range of gram-negative and gram-positive bacteria"}]}
